In paper PMC3794980, “Identification of Conserved and HLA Promiscuous DENV3 T-Cell Epitopes” (PLoS Neglected Tropical Diseases, 2013):
Where no end group is shown, it is not given here.

Key:
Assay in all cases: biochemical
Assay type in all cases: binding
[1] = molecular target: DRB4*0101 (Homo sapiens, UniProt P01903+P13762, G164S)
[2] = molecular target: DRB3*0101 (Homo sapiens, UniProt P01903+P79483)
[3] = molecular target: DRB5*0101 (Homo sapiens, UniProt P01903+Q30154)

How did the IC50 [1] turn out when `CSCC[C@H](NC(=O)[C@@H](NC(=O)[C@@H](NC(=O)[C@@H](NC(=O)[C@H](CS)NC(=O)CNC(=O)CNC(=O)[C@H](Cc1c[nH]cn1)NC(=O)[C@H](CCC(=O)O)NC(=O)[C@H](CC(C)C)NC(=O)[C@@H](NC(=O)[C@@H](NC(=O)[C@H](CC(=O)O)NC(=O)[C@@H](N)C(C)C)C(C)C)C(C)C)C(C)C)[C@@H](C)O)[C@@H](C)O)C(=O)N[C@@H](C)C(=O)O` [Envelope 21-35] was run?
The IC50 was 4.5 µM.

For `CC[C@H](C)[C@H](NC(=O)[C@H](CCC(=O)O)NC(=O)[C@H](C)NC(=O)[C@@H](NC(=O)[C@@H](NC(=O)CNC(=O)[C@@H](N)CCC(N)=O)C(C)C)[C@@H](C)O)C(=O)N[C@H](C(=O)N1CCC[C@H]1C(=O)N[C@@H](CCC(N)=O)C(=O)N[C@@H](C)C(=O)N[C@@H](CO)C(=O)N[C@H](C(=O)N[C@H](C(=O)N[C@@H](CCC(=O)O)C(=O)O)[C@@H](C)O)[C@@H](C)O)[C@@H](C)O` [Envelope 156-170], which IC50 [1] is on record?
The IC50 was 0.707 µM.

What does the source list for `CC[C@H](C)[C@H](NC(=O)[C@H](C)NC(=O)[C@@H](NC(=O)[C@H](C)NC(=O)[C@H](CC(C)C)NC(=O)[C@H](CCCNC(=N)N)NC(=O)[C@H](CCCCN)NC(=O)[C@@H]1CCCN1C(=O)[C@H](CO)NC(=O)[C@H](CC(=O)O)NC(=O)[C@H](C)NC(=O)[C@H](CCC(N)=O)NC(=O)[C@H](Cc1ccccc1)NC(=O)[C@@H](N)CCCCN)[C@@H](C)O)C(=O)N[C@@H](C)C(=O)O` [NS1 33-47]?
IC50 [2]: 0.022 µM; IC50 [1]: 0.916 µM

How did the IC50 [2] turn out when `CC[C@H](C)[C@H](N)C(=O)N[C@@H](Cc1ccccc1)C(=O)N[C@@H](CCSC)C(=O)N[C@H](C(=O)N[C@@H](C)C(=O)N[C@H](C(=O)N1CCC[C@H]1C(=O)N1CCC[C@H]1C(=O)NCC(=O)N[C@H](C(=O)N[C@@H](C)C(=O)N[C@@H](CC(=O)O)C(=O)N[C@@H](C)C(=O)N[C@@H](Cc1ccccc1)C(=O)N1CCC[C@H]1C(=O)O)[C@@H](C)O)[C@@H](C)O)[C@@H](C)O` [NS3 313-327] was run?
The IC50 was 9.44 µM.

What about the IC50 [3] of the same molecule?
The IC50 was 13.9 µM.

What does the source list for `CC[C@H](C)[C@H](NC(=O)[C@H](CO)NC(=O)[C@@H]1CCCN1C(=O)[C@@H](NC(=O)[C@H](Cc1ccccc1)NC(=O)[C@H](Cc1c[nH]c2ccccc12)NC(=O)[C@@H](NC(=O)[C@@H](NC(=O)[C@H](CCCCN)NC(=O)CNC(=O)[C@H](C)NC(=O)[C@H](Cc1ccccc1)NC(=O)[C@H](CC(=O)O)NC(=O)[C@@H](N)[C@@H](C)O)[C@@H](C)O)C(C)C)C(C)C)C(=O)N[C@@H](CCCCN)C(=O)O` [NS3 353-367]?
IC50 [2]: 15.7 µM; IC50 [3]: 1.22 µM

Which results are given for `CC[C@H](C)[C@H](NC(=O)[C@@H](NC(=O)[C@H](CCCCN)NC(=O)[C@@H](N)CCCCN)C(C)C)C(=O)N[C@@H](CCC(N)=O)C(=O)N[C@@H](CC(C)C)C(=O)N[C@@H](CO)C(=O)N[C@@H](CCCNC(=N)N)C(=O)N[C@@H](CCCCN)C(=O)N[C@H](C(=O)N[C@@H](Cc1ccccc1)C(=O)N[C@@H](CC(=O)O)C(=O)N[C@H](C(=O)N[C@@H](CCC(=O)O)C(=O)N[C@@H](Cc1ccc(O)cc1)C(=O)O)[C@@H](C)O)[C@@H](C)O` [NS3 381-395]?
IC50 [2]: 0.399 µM; IC50 [3]: 5.72 µM

Which IC50 [2] does the source give for `CC(C)C[C@H](NC(=O)[C@H](CCCCN)NC(=O)[C@@H](NC(=O)[C@H](CCCCN)NC(=O)[C@H](CCC(N)=O)NC(=O)[C@H](Cc1ccc(O)cc1)NC(=O)[C@H](CCC(=O)O)NC(=O)[C@@H](N)[C@@H](C)O)[C@@H](C)O)C(=O)N[C@@H](CC(N)=O)C(=O)N[C@@H](CC(=O)O)C(=O)N[C@@H](Cc1c[nH]c2ccccc12)C(=O)N[C@@H](CC(=O)O)C(=O)N[C@@H](Cc1ccccc1)C(=O)N[C@H](C(=O)N[C@H](C(=O)O)C(C)C)C(C)C` [NS3 393-407] here?
The IC50 was 3.7 µM.

What about the IC50 [3] of the same molecule?
The IC50 was 15.9 µM.

What does the source list for `CC[C@H](C)[C@H](NC(=O)[C@H](CC(=O)O)NC(=O)[C@@H](N)[C@@H](C)O)C(=O)N[C@@H](CO)C(=O)N[C@@H](CCC(=O)O)C(=O)N[C@@H](CCSC)C(=O)NCC(=O)N[C@@H](C)C(=O)N[C@@H](CC(N)=O)C(=O)N[C@@H](Cc1ccccc1)C(=O)N[C@@H](CCCCN)C(=O)N[C@@H](C)C(=O)N[C@@H](CC(=O)O)C(=O)N[C@@H](CCCNC(=N)N)C(=O)N[C@H](C(=O)O)C(C)C` [NS3 409-423]?
IC50 [2]: 0.168 µM; IC50 [3]: 0.05 µM

What does the source list for `CC[C@H](C)[C@H](NC(=O)[C@@H](NC(=O)[C@H](CCCNC(=N)N)NC(=O)[C@H](CC(=O)O)NC(=O)[C@H](C)NC(=O)[C@H](CCCCN)NC(=O)[C@H](Cc1ccccc1)NC(=O)[C@H](CC(N)=O)NC(=O)[C@H](C)NC(=O)CNC(=O)[C@H](CCSC)NC(=O)[C@@H](N)CCC(=O)O)C(C)C)C(=O)N[C@@H](CC(=O)O)C(=O)N1CCC[C@H]1C(=O)N[C@@H](CCCNC(=N)N)C(=O)O` [NS3 413-427]?
IC50 [2]: 0.096 µM; IC50 [3]: 1.2 µM

Which results are given for `CSCC[C@H](NC(=O)CNC(=O)CNC(=O)[C@H](Cc1c[nH]cn1)NC(=O)[C@H](CCCCN)NC(=O)[C@H](CCCNC(=N)N)NC(=O)[C@H](CCC(N)=O)NC(=O)[C@H](CC(C)C)NC(=O)[C@H](CCCNC(=N)N)NC(=O)[C@H](CCC(=O)O)NC(=O)[C@@H](N)CC(C)C)C(=O)N[C@@H](CC(C)C)C(=O)N[C@H](C(=O)N[C@@H](CCCNC(=N)N)C(=O)N[C@@H](CC(N)=O)C(=O)N1CCC[C@H]1C(=O)N[C@@H](CC(C)C)C(=O)O)C(C)C` [NS5 193-209]?
IC50 [2]: 12 µM; IC50 [3]: 1.2 µM

How did the IC50 [1] turn out when `C[C@H](NC(=O)[C@H](Cc1c[nH]c2ccccc12)NC(=O)[C@@H](NC(=O)[C@H](CCCCN)NC(=O)[C@H](Cc1ccc(O)cc1)NC(=O)[C@@H]1CCCN1C(=O)[C@H](CC(N)=O)NC(=O)[C@H](CCC(=O)O)NC(=O)[C@H](CC(=O)O)NC(=O)[C@H](CC(=O)O)NC(=O)[C@H](Cc1ccc(O)cc1)NC(=O)[C@H](Cc1c[nH]cn1)NC(=O)[C@H](Cc1c[nH]c2ccccc12)NC(=O)[C@@H](N)[C@@H](C)O)[C@@H](C)O)C(=O)N[C@@H](Cc1ccc(O)cc1)C(=O)N[C@@H](Cc1c[nH]cn1)C(=O)NCC(=O)O` [NS5 290-306] was run?
The IC50 was 15.6 µM.

Which results are given for `CC(C)[C@H](NC(=O)[C@H](CCC(=O)O)NC(=O)[C@H](Cc1ccc(O)cc1)NC(=O)[C@H](CO)NC(=O)CNC(=O)[C@H](Cc1c[nH]cn1)NC(=O)[C@H](Cc1ccc(O)cc1)NC(=O)[C@H](C)NC(=O)[C@H](Cc1c[nH]c2ccccc12)NC(=O)[C@@H](NC(=O)[C@H](CCCCN)NC(=O)[C@H](Cc1ccc(O)cc1)NC(=O)[C@@H]1CCCN1C(=O)[C@H](CC(N)=O)NC(=O)[C@H](CCC(=O)O)NC(=O)[C@@H](N)CC(=O)O)[C@@H](C)O)C(=O)N[C@@H](CCCCN)C(=O)O` [NS5 295-311]?
IC50 [2]: 0.98 µM; IC50 [3]: 5.29 µM

Which results are given for `CC(C)[C@H](NC(=O)[C@H](CCC(=O)O)NC(=O)[C@H](Cc1ccc(O)cc1)NC(=O)[C@H](CO)NC(=O)CNC(=O)[C@H](Cc1c[nH]cn1)NC(=O)[C@H](Cc1ccc(O)cc1)NC(=O)[C@H](C)NC(=O)[C@H](Cc1c[nH]c2ccccc12)NC(=O)[C@@H](N)[C@@H](C)O)C(=O)N[C@@H](CCCCN)C(=O)N[C@@H](C)C(=O)N[C@H](C(=O)NCC(=O)N[C@@H](CO)C(=O)N[C@@H](C)C(=O)O)[C@@H](C)O` [NS5 301-316]?
IC50 [2]: 0.536 µM; IC50 [3]: 1.83 µM

With `CC(C)C[C@H](NC(=O)CNC(=O)[C@H](CCC(=O)O)NC(=O)CNC(=O)[C@H](CCC(=O)O)NC(=O)[C@@H](NC(=O)CNC(=O)[C@H](CO)NC(=O)[C@H](Cc1ccc(O)cc1)NC(=O)[C@H](CO)NC(=O)[C@H](CC(N)=O)NC(=O)[C@H](CCC(=O)O)NC(=O)[C@H](CCCNC(=N)N)NC(=O)[C@H](CO)NC(=O)[C@H](Cc1ccccc1)NC(=O)[C@H](Cc1c[nH]c2ccccc12)NC(=O)[C@@H](N)Cc1c[nH]cn1)C(C)C)C(=O)O` [NS5 495-511] as the molecule, how does the IC50 [2] read?
The IC50 was 1.16 µM.

And the IC50 [3]?
Its IC50 is 0.723 µM.

How did the IC50 [2] turn out when `CC[C@H](C)[C@H](NC(=O)[C@H](CCCCN)NC(=O)[C@H](CCCCN)NC(=O)[C@H](CCC(=O)O)NC(=O)[C@H](CC(C)C)NC(=O)[C@@H]1CCCN1C(=O)[C@H](Cc1c[nH]cn1)NC(=O)[C@@H]1CCCN1C(=O)[C@H](CC(N)=O)NC(=O)[C@H](CCC(=O)O)NC(=O)[C@H](CC(C)C)NC(=O)[C@H](CC(=O)O)NC(=O)[C@H](C)NC(=O)[C@@H](N)CCCCN)C(=O)N[C@H](C(=O)N[C@@H](CCC(N)=O)C(=O)N[C@@H](Cc1c[nH]c2ccccc12)C(=O)O)[C@@H](C)O` [NS5 630-646] was run?
The IC50 was 13.7 µM.

What about the IC50 [3] of the same molecule?
The IC50 was 15.5 µM.

With `CC[C@H](C)[C@H](NC(=O)[C@H](CCCCN)NC(=O)[C@H](CCCCN)NC(=O)[C@H](CCC(=O)O)NC(=O)[C@H](CC(C)C)NC(=O)[C@@H]1CCCN1C(=O)[C@H](Cc1c[nH]cn1)NC(=O)[C@@H]1CCCN1)C(=O)N[C@H](C(=O)N[C@@H](CCC(N)=O)C(=O)N[C@@H](Cc1c[nH]c2ccccc12)C(=O)N[C@@H](CC(C)C)C(=O)N[C@@H](CCC(=O)O)C(=O)N[C@H](C(=O)N[C@@H](CCCCN)C(=O)NCC(=O)N[C@H](C(=O)O)C(C)C)[C@@H](C)O)[C@@H](C)O` [NS5 636-652] as the molecule, how does the IC50 [1] read?
The IC50 was 3.83 µM.

`CC[C@H](C)[C@H](NC(=O)[C@H](C)NC(=O)[C@H](CCSC)NC(=O)[C@H](CCCNC(=N)N)NC(=O)[C@H](CCCCN)NC(=O)[C@H](CC(C)C)NC(=O)[C@H](CCCNC(=N)N)NC(=O)[C@H](CCC(=O)O)NC(=O)[C@@H](N)C(C)C)C(=O)N[C@@H](CO)C(=O)NCC(=O)N[C@@H](CC(=O)O)C(=O)N[C@@H](CC(=O)O)C(=O)N[C@@H](CS)C(=O)N[C@H](C(=O)N[C@H](C(=O)N[C@@H](CCCCN)C(=O)O)C(C)C)C(C)C` [NS5 652-668] was tested. Which IC50 [1] did it give?
The IC50 was 0.618 µM.

For `CC[C@H](C)[C@H](NC(=O)[C@H](CC(C)C)NC(=O)[C@H](CCC(=O)O)NC(=O)[C@H](Cc1c[nH]cn1)NC(=O)[C@H](Cc1ccccc1)NC(=O)[C@H](Cc1c[nH]cn1)NC(=O)[C@H](Cc1c[nH]cn1)NC(=O)[C@H](CO)NC(=O)[C@H](CS)NC(=O)[C@H](Cc1ccccc1)NC(=O)[C@@H]1CCCN1C(=O)[C@@H](NC(=O)[C@H](CCC(N)=O)NC(=O)[C@H](CCC(N)=O)NC(=O)[C@H](Cc1c[nH]c2ccccc12)NC(=O)[C@@H](N)CC(=O)O)C(C)C)C(=O)N[C@@H](CCSC)C(=O)O` [NS5 702-718], which IC50 [2] is on record?
The IC50 was 4.74 µM.

What about the IC50 [3] of the same molecule?
Its IC50 is 3.22 µM.

For EITPQASTTEAILPE [Envelope 161-175], which IC50 [1] is on record?
The IC50 was 16.6 µM.

How did the IC50 [1] turn out when LPWTSGATTETPTWN [Envelope 216-230] was run?
The IC50 was 11.6 µM.
